Source: patent US5430018A, “Cyclohexapeptide with basic nitrogen containing alkylamide groups” (priority 1991, dated 1995)
Values after ≈ are worked out from the molar mass of the structure shown. Numbered stars: 1 amine (or outer) side, 2 acyl side, 3 side chain; on linkers, the order of the positions; unused ones are H or OH. Bridge positions count the residues as written; N and C are the ends. Square brackets hold non-standard residues; d marks the D form. Peptide text beside a SMILES is read from it. * marks the point of attachment. Tetradecanoyl(10R,12S-Me2) = CC[C@H](C)C[C@H](C)CCCCCCCCC(=O)*; Orn(4R-OH) = O=C([C@H](C[C@@H](O)CN[*:3])N[*:1])[*:2]; hTyr(3R-OH) = N[C@H](C(=O)O)[C@H](O)Cc1ccc(O)cc1; X1 = COC(=O)C[C@@H](O)[C@H](N[*:1])C(=O)[*:2]; X2 = O=C(O)C[C@@H](O)[C@H](N[*:1])C(=O)[*:2]; Pro(3S-OH) = O=C(O)[C@H]1NCC[C@@H]1O; Hyp = O=C(O)[C@@H]1C[C@@H](O)CN1

How the values were obtained:
C. albicans MY 1055 = format: cell-based, Candida albicans; settings: MY 1055, 24 h
Experimental: The compounds of the present invention are active against many fungi and particularly against Candida species. The antifungal properties maybe illustrated with the minimum fungicidal concentration (MFC) determination against certain Candida organisms in a microbroth dilution assay carried out in a Yeast Nitrogen Base (Difco) medium with 1% dextrose (YNBD). In separate assays, the compounds (all Seq. ID No. 1) were solubilized in 10% dimethyl sulfoxide (DMSO) and diluted to 2560 μg/ml. The solution was then diluted to 256 μg/ml in YNBD and dispensed via a multichannel pipetter into the top row of a 96-well plate (each well containing 0.15 ml of YNBD), resulting in a drug concentration of 128 μg/ml. Compounds in the top row were diluted 2-fold down the columns yielding final drug concentrations ranging from 128-0.06 μg/ml. All tests were performed in duplicate. A four-hour broth culture of C. albicans MY 1055 was adjusted using a spectrophotometer at 530 nm to equal a 0.5 McFarland Standard. This yields a cell concentration of 1-5×10^6 colony forming units (CFU)/ml. The 96-well microplates were inoculated using an MIC-2000 (Dynatech), which delivers […] per well, yielding a final inoculum per well of 1.5-7.5×10^3 cells. One column per tray containing drug-free growth control wells was included. […]

C. albicans MY 1028 = format: cell-based, Candida albicans; settings: MY 1028, 24 h

Row | Compound | MFC C. albicans MY 1055 (C. albicans MY 1055) [µg/mL] | MFC C. albicans MY 1028 (C. albicans MY 1028) [µg/mL]
1 | CC[C@H](C)C[C@H](C)CCCCCCCCC(=O)N[C@H]1C[C@@H](O)CNC(=O)[C@@H]2[C@@H](O)CCN2C(=O)[C@H]([C@H](O)CC(=O)O)NC(=O)[C@H]([C@H](O)Cc2ccc(O)cc2)NC(=O)[C@@H]2C[C@@H](O)CN2C(=O)[C@H]([C@@H](C)O)NC1=O [acid] ({Tetradecanoyl(10R,12S-Me2)}-[Orn(4R-OH)]T[Hyp][hTyr(3R-OH)][X2][Pro(3S-OH)]; lactam 1-C) | 0.5 (≈ 0.483 µM) | 1 (≈ 0.967 µM)
2 | CC[C@H](C)C[C@H](C)CCCCCCCCC(=O)N[C@H]1C[C@@H](O)CNC(=O)[C@@H]2[C@@H](O)CCN2C(=O)[C@H]([C@H](O)CC(=O)OC)NC(=O)[C@H]([C@H](O)Cc2ccc(O)cc2)NC(=O)[C@@H]2C[C@@H](O)CN2C(=O)[C@H]([C@@H](C)O)NC1=O [methyl ester] ({Tetradecanoyl(10R,12S-Me2)}-[Orn(4R-OH)]T[Hyp][hTyr(3R-OH)][X1][Pro(3S-OH)]; lactam 1-C) | 0.5 (≈ 0.477 µM) | 0.25 (≈ 0.238 µM)
